Holding throughout (test): NCI anticancer screen, dose series, 48 h
For assay [1], the system named is SK-MEL-28 melanoma.
For assay [2], the system named is HCT-116 colon.
The subject of assay [3] is SK-OV-3 ovarian.
Assay [4] relates to A498 renal.
For assay [5], the system named is UACC-62 melanoma.
Assay [6] concerns A549 NSCLC.
Assay [7] has as its system HOP-92 NSCLC.
Assay [8] deals with SNB-19 CNS.
The test system of assay [9] is NCI-H522 lung.
Assay [10] deals with UACC-257 melanoma.

Where “and” joins values, the source holds several entries; their conditions need not be identical. Identical values can stand only once.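 Grown in 96-well plates, cells were treated for 48 hours with each compound at five concentrations. Insufficient inhibition: endpoint recorded as highest concentration tested. GI50 marks 50% less growth. TGI denotes the concentration required for complete inhibition of growth.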

On to `C[C@]12CC[C@@H]3c4ccc(O)cc4CC[C@H]3[C@@H]1CC[C@@H]2NS(=O)(=O)c1cccc(Cl)c1`, for which the GI50 in assay [1] was 2.24 µM; in assay [2], 1.68 µM; in [3], 3.79 µM; in [4], 1.56 µM; in assay [5], 1.86 µM; in assay [6], 3.22 µM. For the same compound, the GI50 in [7] was 2.08 µM; in assay [8], 3.87 µM; in assay [9], 1.91 µM; in assay [10] it was 2.9 µM. Also, the TGI in [1] turned out to be 5.93 µM; in assay [2], 3.11 µM; in [3] it was 12.6 µM; in [4], 5.19 µM; in assay [5], 4.84 µM; in assay [6], 12.7 µM. For the same compound, the TGI turned out to be 5.69 µM in assay [7], 14.4 µM in assay [8], 7.15 µM in assay [9] and 12.3 µM in [10].
With `O=C(Nc1ccc2ncnc(Nc3ccc(Oc4cccc(F)c4)c(Cl)c3)c2c1)c1ccc(CN2CCOCC2)cc1`, the GI50 is 2.62 µM in assay [1]; 2.55 µM in [2]; 1.66 µM in assay [3]; 3.28 µM in [4]; 1.78 µM in [5]; 2.35 µM in assay [6]. Moreover, the GI50 was 2.38 µM in assay [7], 3.53 µM in assay [8], 0.654 µM in [9] and 2.36 µM in assay [10]. Besides, the TGI was 9.38 µM in [1]; 8.94 µM in assay [2]; above 100 µM in [3]; 65.6 µM in [4]; 3.43 µM in assay [5]; 10.3 µM in assay [6]. Also, the TGI was 15.4 µM in assay [7], above 100 µM in [8], 4.01 µM in [9] and 7.1 µM in assay [10].
For `CC(=O)O[C@@]12CO[C@@H]1C[C@H](O)[C@@]1(C)C(=O)[C@H](O)C3=C(C)[C@@H](OC(=O)[C@H](O)[C@@H](NC(=O)OC(C)(C)C)c4ccccc4)C[C@@](O)([C@@H](OC(=O)c4ccccc4)C12)C3(C)C` (stereo partly drawn), the GI50 in [1] is 12.7 µM; in assay [2], below 0.005 µM; in assay [3], below 0.005 µM; in assay [5] it was 0.0922 µM; in [6], below 0.005 µM; in assay [7], < 0.005 µM and 0.0181 µM. For the same compound, the GI50 in assay [8] is 0.031 µM; in assay [10], 32.3 µM. Also, the TGI in assay [1] was 50.7 µM; in assay [2] it was 50 µM and > 100 µM; in [3], 50 µM and 72.6 µM; in assay [4], 37 µM and 73.1 µM; in assay [5], 33.7 µM; in assay [6], 50 µM and > 100 µM. In addition, the TGI in [7] was 17.1 µM and 8.9 µM; in assay [8], above 100 µM; in [9], 52.3 µM; in assay [10] it was above 100 µM.
Take `O=c1/c(=C/c2c(O)ccc3ccccc23)sc2nc3ccccc3n12`: the TGI in assay [1], in assay [2], in assay [3], in assay [4], in [5] and in [6] was above 100 µM in each case. Also, the TGI in [7], in [8], in assay [9] and in assay [10] was above 100 µM throughout.
Consider `Cc1cc2c(cc1C)[n+](=O)c(C(=O)/C=C/c1ccc3c(c1)OCO3)c(C)n2[O-]`, for which the TGI was above 100 µM in [1]; above 100 µM in [2]; 52.2 µM in assay [3]; above 100 µM in [4]; 59.5 µM in [5]; above 100 µM in assay [6]. Moreover, the TGI is 69.1 µM in assay [7], 79.3 µM in [8], 79.4 µM in [9] and above 100 µM in assay [10].
As for `CCCCC[C@H]1CC=C2C(=O)C=C[C@@H]2CC=CCCCC(=O)O[C@@H](CCCCC)CC=C2C(=O)C=C[C@@H]2CC=CCCCC(=O)O[C@@H](CCCCC)CC=C2C(=O)C=C[C@@H]2CC=CCCCC(=O)O1`, the GI50 in assay [1] was 0.311 µM; in [2] it was 0.221 µM; in assay [3], 1.62 µM; in [4] it was 0.75 µM; in assay [5] it was 0.204 µM; in assay [6] it was 0.529 µM. Moreover, the GI50 was 0.359 µM in [7], 0.55 µM in assay [8], 0.218 µM in assay [9] and 0.456 µM in assay [10]. The TGI was 1.74 µM in assay [1]; 0.906 µM in assay [2]; above 8.75 µM in [3]; 2.41 µM in [4]; 0.545 µM in assay [5]; 2.12 µM in assay [6]. The TGI was 1.82 µM in [7], above 8.75 µM in assay [8], 0.797 µM in assay [9] and 2.2 µM in assay [10].

The record behind these values is PubChem BioAssay (NCI).
